Laboratory results as given in ChEMBL document CHEMBL1275440, “In vitro activity of telavancin against resistant gram-positive bacteria” (2008).
In brackets after ≈: the same amount, converted by molar mass. Activity calls are given as the source filed them. The calls are words filed in the database; no cut-off is given here.

Legend:
Assay type in all cases: functional
Streptococcus agalactiae [1] = test: Antibacterial activity against Streptococcus agalactiae MED 2038 assessed as bacterial count at 0.5 ug/ml after 2 hrs by time-kill assay
[2] = tested on: Staphylococcus epidermidis; test: Antibacterial activity against methicillin resistant Staphylococcus epidermidis ATCC 35984 assessed as bacterial count at 16 ug/ml after 24 hrs by time-kill assay
Streptococcus agalactiae [3] = test: Antibacterial activity against Streptococcus agalactiae MED 2038 assessed as bacterial count at […] after 24 hrs by time-kill assay
Enterococcus faecalis [4] = test: Antibacterial activity against vancomycin resistant Enterococcus faecalis VanB clinical isolate by broth microdilution method
Streptococcus pneumoniae [5] = test: Antibacterial activity against multidrug resistant Streptococcus pneumoniae MED 1090 assessed as bacterial count at 8 ug/ml after 2 hrs by time-kill assay
[6] = tested on: Staphylococcus epidermidis; test: Antibacterial activity against methicillin resistant Staphylococcus epidermidis ATCC 35984 assessed as bacterial count at 16 ug/ml after 2 hrs by time-kill assay
Streptococcus pneumoniae [7] = test: Antibacterial activity against multidrug resistant Streptococcus pneumoniae MED 1090 by broth microdilution method
Streptococcus pyogenes [8] = test: Antibacterial activity against Streptococcus pyogenes MED 2040 assessed as bacterial count at […] after 8 hrs by time-kill assay
Staphylococcus aureus [9] = test: Antibacterial activity against methicillin resistant Staphylococcus aureus MED 2028 osteomyelitis isolate assessed as bacterial count at 8 ug/ml after 2 hrs by time-kill assay
[10] = tested on: Staphylococcus epidermidis; test: Antibacterial activity against methicillin resistant Staphylococcus epidermidis ATCC 35984 assessed as bacterial count at 2 ug/ml after 8 hrs by time-kill assay
Streptococcus agalactiae [11] = test: Antibacterial activity against Streptococcus agalactiae MED 2038 assessed as bacterial count at […] after 2 hrs by time-kill assay
[12] = tested on: Streptococcus intermedius; test: Antibacterial activity against Streptococcus intermedius clinical isolate by broth microdilution method
Streptococcus pneumoniae [13] = test: Antibacterial activity against multidrug resistant Streptococcus pneumoniae MED 1090 assessed as bacterial count at 0.03 ug/ml after 8 hrs by time-kill assay
Streptococcus pyogenes [14] = test: Antibacterial activity against Streptococcus pyogenes MED 2040 assessed as bacterial count at 0.5 ug/ml after 8 hrs by time-kill assay
[15] = tested on: Staphylococcus auricularis; test: Antibacterial activity against methicillin resistant coagulase-negative Staphylococcus auricularis clinical isolate by broth microdilution method
Streptococcus agalactiae [16] = test: Antibacterial activity against Streptococcus agalactiae MED 2038 assessed as bacterial count at 0.5 ug/ml after 8 hrs by time-kill assay
Streptococcus agalactiae [17] = test: Antibacterial activity against Streptococcus agalactiae MED 2038 assessed as bacterial count at 0.5 ug/ml after 4 hrs by time-kill assay
Streptococcus pneumoniae [18] = test: Antibacterial activity against multidrug resistant Streptococcus pneumoniae MED 1090 assessed as bacterial count at […] after 4 hrs by time-kill assay
[19] = tested on: Staphylococcus epidermidis; test: Antibacterial activity against methicillin resistant Staphylococcus epidermidis clinical isolate by broth microdilution method
Streptococcus agalactiae [20] = test: Antibacterial activity against Streptococcus agalactiae MED 2038 assessed as bacterial count at […] after 4 hrs by time-kill assay
Streptococcus agalactiae [21] = test: Antibacterial activity against Streptococcus agalactiae MED 2038 by broth microdilution method
[22] = tested on: Staphylococcus epidermidis; test: Antibacterial activity against methicillin resistant Staphylococcus epidermidis ATCC 35984 assessed as bacterial count at 2 ug/ml after 4 hrs by time-kill assay
Enterococcus faecalis [23] = test: Antibacterial activity against vancomycin resistant Enterococcus faecalis VanA clinical isolate by broth microdilution method
Streptococcus pneumoniae [24] = test: Antibacterial activity against multidrug resistant Streptococcus pneumoniae MED 1090 assessed as bacterial count at 0.06 ug/ml after 8 hrs by time-kill assay
Enterococcus faecalis [25] = test: Antibacterial activity against Enterococcus faecalis ATCC 51575 assessed as bacterial count at 8 ug/ml after 8 hrs by time-kill assay
Enterococcus faecium = test: Antibacterial activity against vancomycin resistant Enterococcus faecium VanA clinical isolate by broth microdilution method
[26] = tested on: Staphylococcus epidermidis; test: Antibacterial activity against methicillin resistant Staphylococcus epidermidis ATCC 35984 assessed as bacterial count at 8 ug/ml after 4 hrs by time-kill assay
Streptococcus agalactiae [27] = test: Antibacterial activity against Streptococcus agalactiae MED 2038 assessed as bacterial count at 8 ug/ml after 24 hrs by time-kill assay
Streptococcus pyogenes [28] = test: Antibacterial activity against Streptococcus pyogenes MED 2040 assessed as bacterial count at […] after 4 hrs by time-kill assay
[29] = tested on: Staphylococcus epidermidis; test: Antibacterial activity against methicillin resistant Staphylococcus epidermidis ATCC 35984 assessed as bacterial count at 16 ug/ml after 8 hrs by time-kill assay
Streptococcus agalactiae [30] = test: Antibacterial activity against Streptococcus agalactiae MED 2038 assessed as bacterial count at 8 ug/ml after 2 hrs by time-kill assay
Staphylococcus aureus [31] = test: Antibacterial activity against methicillin resistant Staphylococcus aureus MED 2028 osteomyelitis isolate assessed as bacterial count at 16 ug/ml after 8 hrs by time-kill assay
Enterococcus faecalis [32] = test: Antibacterial activity against Enterococcus faecalis ATCC 51575 assessed as bacterial count at 4 ug/ml after 8 hrs by time-kill assay
Streptococcus pyogenes [33] = test: Antibacterial activity against Streptococcus pyogenes MED 2040 assessed as bacterial count at 8 ug/ml after 2 hrs by time-kill assay
Staphylococcus aureus [34] = test: Antibacterial activity against methicillin resistant Staphylococcus aureus MED 2028 osteomyelitis isolate assessed as bacterial count at 1 ug/ml after 2 hrs by time-kill assay
Streptococcus pneumoniae [35] = test: Antibacterial activity against multidrug resistant Streptococcus pneumoniae MED 1090 assessed as bacterial count at 0.03 ug/ml after 2 hrs by time-kill assay
Streptococcus pyogenes [36] = test: Antibacterial activity against Streptococcus pyogenes MED 2040 assessed as bacterial count at […] after 24 hrs by time-kill assay
Streptococcus pyogenes [37] = test: Antibacterial activity against Streptococcus pyogenes MED 2040 assessed as bacterial count at 2 ug/ml after 24 hrs by time-kill assay
Streptococcus agalactiae [38] = test: Antibacterial activity against Streptococcus agalactiae MED 2038 assessed as bacterial count at 0.5 ug/ml after 24 hrs by time-kill assay
Streptococcus pneumoniae [39] = test: Antibacterial activity against penicillin intermediate Streptococcus pneumoniae clinical isolate by broth microdilution method
Streptococcus oralis = test: Antibacterial activity against Streptococcus oralis clinical isolate by broth microdilution method
Streptococcus pyogenes [40] = test: Antibacterial activity against Streptococcus pyogenes MED 2040 by broth microdilution method
Staphylococcus aureus [41] = test: Antibacterial activity against methicillin resistant Staphylococcus aureus MED 2028 osteomyelitis isolate assessed as bacterial count at 4 ug/ml after 4 hrs by time-kill assay
[42] = tested on: Staphylococcus epidermidis; test: Antibacterial activity against methicillin resistant Staphylococcus epidermidis ATCC 35984 by broth microdilution method
Staphylococcus aureus [43] = test: Antibacterial activity against methicillin resistant Staphylococcus aureus MED 1805 bloodstream isolate assessed as bacterial count at 1 ug/ml after 4 hrs by time-kill assay

CCCCCCCCCCNCCN[C@@]1(C)C[C@H](O[C@H]2[C@H](Oc3c4cc5cc3Oc3ccc(cc3Cl)[C@@H](O)[C@@H](NC(=O)[C@@H](CC(C)C)NC)C(=O)N[C@@H](CC(N)=O)C(=O)N[C@H]5C(=O)N[C@H]3C(=O)N[C@H](C(=O)N[C@H](C(=O)O)c5cc(O)c(CNCP(=O)(O)O)c(O)c5-c5cc3ccc5O)[C@H](O)c3ccc(c(Cl)c3)O4)O[C@H](CO)[C@@H](O)[C@@H]2O)O[C@@H](C)[C@H]1O [TELAVANCIN]
log10CFU/ml (Streptococcus agalactiae [1]): 0.87
log10CFU/ml [2]: 3.3
log10CFU/ml (Streptococcus agalactiae [3]): 3.6
MIC (Enterococcus faecalis [4]): 0.25 µg/mL (≈ 0.142 µM)
log10CFU/ml (Streptococcus pneumoniae [5]): 1.2
log10CFU/ml [6]: 0.5
MIC (Streptococcus pneumoniae [7]): 0.015 µg/mL (≈ 0.00854 µM)
log10CFU/ml (Streptococcus pyogenes [8]): 2.5
log10CFU/ml (Staphylococcus aureus [9]): 0.4
log10CFU/ml [10]: 0.7
log10CFU/ml (Streptococcus agalactiae [11]): 1
MIC [12]: 0.015 µg/mL (≈ 0.00854 µM)
MIC50 [12]: inactive
MIC90 [12]: inactive
log10CFU/ml (Streptococcus pneumoniae [13]): 3.4
log10CFU/ml (Streptococcus pyogenes [14]): 2.3
MIC50 [15]: 0.5 µg/mL (≈ 0.285 µM)
MIC90 [15]: 1 µg/mL (≈ 0.57 µM)
log10CFU/ml (Streptococcus agalactiae [16]): 1.6
log10CFU/ml (Streptococcus agalactiae [17]): 1
log10CFU/ml (Streptococcus pneumoniae [18]): 1.9
MIC50 [19]: 0.5 µg/mL (≈ 0.285 µM)
MIC90 [19]: 1 µg/mL (≈ 0.57 µM)
log10CFU/ml (Streptococcus agalactiae [20]): 0.9
MIC (Streptococcus agalactiae [21]): 0.06 µg/mL (≈ 0.0342 µM)
log10CFU/ml [22]: 0.03
MIC50 (Enterococcus faecalis [23]): 8 µg/mL (≈ 4.56 µM)
MIC90 (Enterococcus faecalis [23]): 16 µg/mL (≈ 9.11 µM)
log10CFU/ml (Streptococcus pneumoniae [24]): 3.4
log10CFU/ml (Enterococcus faecalis [25]): 0.5
MIC50 (Enterococcus faecium): 8 µg/mL (≈ 4.56 µM)
MIC90 (Enterococcus faecium): 16 µg/mL (≈ 9.11 µM)
log10CFU/ml [26]: 2.7
log10CFU/ml (Streptococcus agalactiae [27]): 3.7
log10CFU/ml (Streptococcus pyogenes [28]): 0.4
log10CFU/ml [29]: 3.3
log10CFU/ml (Streptococcus agalactiae [30]): 1.1
log10CFU/ml (Staphylococcus aureus [31]): 2.3
log10CFU/ml (Enterococcus faecalis [32]): 0.7
log10CFU/ml (Streptococcus pyogenes [33]): 0.6
log10CFU/ml (Staphylococcus aureus [34]): 0.7
log10CFU/ml (Streptococcus pneumoniae [35]): 1.1
log10CFU/ml (Streptococcus pyogenes [36]): 2.2
log10CFU/ml (Streptococcus pyogenes [37]): 3.1
log10CFU/ml (Streptococcus agalactiae [38]): 3.6
MIC50 (Streptococcus pneumoniae [39]): 0.015 µg/mL (≈ 0.00854 µM)
MIC90 (Streptococcus pneumoniae [39]): 0.06 µg/mL (≈ 0.0342 µM)
MIC (Streptococcus oralis): 0.015 µg/mL (≈ 0.00854 µM)
MIC50 (Streptococcus oralis): inactive
MIC90 (Streptococcus oralis): inactive
MIC (Streptococcus pyogenes [40]): 0.06 µg/mL (≈ 0.0342 µM)
log10CFU/ml (Staphylococcus aureus [41]): 1.7
MIC [42]: 1 µg/mL (≈ 0.57 µM)
log10CFU/ml (Staphylococcus aureus [43]): 1.8
